Our source for the Ki and EC50 values is patent US8501794B2, “Compounds as cannabinoid receptor ligands” (priority 2007, dated 2013).

Each structure is given as a SMILES string.

In assay [1] the target is T1, rat CB2 (Rattus norvegicus, UniProt Q9QZN9).
T1 sequence (Q9QZN9 1-360): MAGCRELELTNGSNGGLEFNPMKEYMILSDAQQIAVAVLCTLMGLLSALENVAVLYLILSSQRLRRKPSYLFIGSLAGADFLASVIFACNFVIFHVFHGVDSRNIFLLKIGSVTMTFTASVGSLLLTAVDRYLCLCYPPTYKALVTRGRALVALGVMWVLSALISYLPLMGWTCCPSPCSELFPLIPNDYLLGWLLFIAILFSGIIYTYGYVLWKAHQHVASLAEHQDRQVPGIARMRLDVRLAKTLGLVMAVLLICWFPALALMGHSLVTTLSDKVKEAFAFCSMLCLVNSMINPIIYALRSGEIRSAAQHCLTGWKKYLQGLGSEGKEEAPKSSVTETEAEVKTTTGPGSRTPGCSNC
As to the kind of experiment: rat CB2 radioligand binding assay ([3H]CP-55,940 competition). More on the design: expressed in transfected cells; host or cells: HEK293.

Assay [2] has as its target T1, rat CB2. Put plainly: rat CB2 cyclase functional assay (HitHunter cAMP, HEK cells). It is filed as cell-based. More on the design: expressed in transfected cells; host or cells: HEK. The conditions noted are these: forskolin 18 μM.
In another assay the target is T2, human CB2 receptors (Homo sapiens, UniProt P34972).
T2 construct: expressed in transfected cells; host or cells: HEK293
T2 sequence (P34972 whole entry): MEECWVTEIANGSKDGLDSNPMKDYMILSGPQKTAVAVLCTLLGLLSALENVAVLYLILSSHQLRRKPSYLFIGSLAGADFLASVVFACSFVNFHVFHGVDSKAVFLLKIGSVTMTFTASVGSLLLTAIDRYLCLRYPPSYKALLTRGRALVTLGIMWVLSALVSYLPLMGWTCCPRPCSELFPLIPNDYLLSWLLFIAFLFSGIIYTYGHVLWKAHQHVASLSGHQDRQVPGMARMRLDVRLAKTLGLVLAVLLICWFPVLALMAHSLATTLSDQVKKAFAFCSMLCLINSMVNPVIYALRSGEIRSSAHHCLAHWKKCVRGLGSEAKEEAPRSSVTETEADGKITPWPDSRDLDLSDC
As to the kind of experiment: human CB2 radioligand binding assay ([3H]CP-55,940 competition).

In the case of `CCCCc1cn(C(C)(C)C)s/c1=N\C(=O)C1(C)CCC(C(=O)N(C)C)C1(C)C` (stereo not drawn) [Example 99, N^1-[(5Z)-4-butyl-2-tert-butylisothiazol-5(2H)-ylidene]-N^3,N^3,1,2,2-pentamethylcyclopentane-1,3-dicarboxamide], the Ki was found to be 42 nM at rat CB2 [1] and 56 nM at human CB2 receptors. The compound further had an EC50 at rat CB2 [2] of 4.8 nM.

Consider `COc1ccc(Cl)cc1C(=O)/N=c1\sn(C(C)(C)C)cc1COCC(F)(F)F` [Example 85, N-[(5Z)-2-tert-butyl-4-[(2,2,2-trifluoroethoxy)methyl]isothiazol-5(2H)-ylidene]-5-chloro-2-methoxybenzamide], for which the Ki at rat CB2 [1] came to 3.5 nM; on human CB2 receptors, 17 nM. The compound further had an EC50 on rat CB2 [2] of 0.42 nM.

For the compound `CCCCc1cn(C(C)(C)CF)s/c1=N\C(=O)c1cc(C(F)(F)F)ccc1OC` [Example 152, N-[(5Z)-4-butyl-2-(2-fluoro-1,1-dimethylethyl)isothiazol-5(2H)-ylidene]-2-methoxy-5-(trifluoromethyl)benzamide], the values for the Ki on rat CB2 [1] and at human CB2 receptors were 0.79 nM and 5.1 nM, respectively. Further, the EC50 on rat CB2 [2] turned out to be 0.071 nM.

`CCCCc1cn(C(C)(C)C)s/c1=N\C(=O)c1cc(F)ccc1OC` [Example 42, N-[(5Z)-4-butyl-2-tert-butylisothiazol-5(2H)-ylidene]-5-fluoro-2-methoxybenzamide]: the Ki on rat CB2 [1] came out at 2.3 nM; at human CB2 receptors, 24 nM. Also, the half-maximal effective concentration (EC50) on rat CB2 [2] stood at 0.31 nM.

Turning to `CCCCc1cn(C(C)(C)C)s/c1=N\C(=O)C1(c2ccccc2)CCCCC1` [Example 94, N-[(5Z)-4-butyl-2-tert-butylisothiazol-5(2H)-ylidene]-1-phenylcyclohexanecarboxamide], the values for the Ki on rat CB2 [1] and at human CB2 receptors were 1.1 nM and 4.8 nM, respectively. The compound further returned an EC50 at rat CB2 [2] of 0.25 nM.

`CCCCc1cn(C(C)(C)C)s/c1=N\C(=O)c1cc(C(=O)OC)ccc1OC` [Example 74, Methyl 3-({[(5Z)-4-butyl-2-tert-butylisothiazol-5(2H)-ylidene]amino}carbonyl)-4-methoxybenzoate]: the Ki at rat CB2 [1] stood at 2.5 nM; on human CB2 receptors, 27 nM. This compound also showed an EC50 at rat CB2 [2] of 0.095 nM.

For `COc1ccc(Cl)cc1C(=O)/N=c1\sn(C(C)(C)C)cc1CCCC(F)(F)F` [Example 142, N-[(5Z)-2-tert-butyl-4-(4,4,4-trifluorobutyl)isothiazol-5(2H)-ylidene]-5-chloro-2-methoxybenzamide], the Ki on rat CB2 [1] is 0.43 nM; at human CB2 receptors it was 2.2 nM. This compound also had an EC50 at rat CB2 [2] of 0.062 nM.

Consider `COc1ccc(Cl)cc1C(=O)/N=c1\sn(C(C)(C)C)cc1C(O)C1CCC1` (stereo not drawn) [Example 34, N-[(5Z)-2-tert-butyl-4-[cyclobutyl(hydroxy)methyl]isothiazol-5(2H)-ylidene]-5-chloro-2-methoxybenzamide], for which the Ki on rat CB2 [1] stood at 1.2 nM; at human CB2 receptors, 3.6 nM. The compound also registered an EC50 at rat CB2 [2] of 0.4 nM.

As to `CCCCc1cn(C(C)(C)C)s/c1=N\C(=O)[C@H]1CC[C@@](C)(C(=O)OC)C1(C)C` [Example 170, Methyl (1R,3S)-3-({[(5Z)-4-butyl-2-tert-butylisothiazol-5(2H)-ylidene]amino}carbonyl)-1,2,2-trimethylcyclopentanecarboxylate], the Ki at rat CB2 [1] stood at 1.7 nM; on human CB2 receptors, 1.4 nM. Moreover, the EC50 at rat CB2 [2] is 0.043 nM.

On to `CCCCc1cn(C(C)(C)C)s/c1=N\S(=O)(=O)c1cccc2ccccc12` [Example 116, N-[(5Z)-4-butyl-2-tert-butylisothiazol-5(2H)-ylidene]naphthalene-1-sulfonamide], for which the Ki is 45 nM on rat CB2 [1] and 50 nM at human CB2 receptors. At rat CB2 [2], this compound came in with an EC50 of 2.4 nM.

As to `CCCCc1cn(C(C)(C)C)s/c1=N\C(=O)c1cc(Cl)ccc1OC` [Example 1, N-[(5Z)-4-butyl-2-tert-butylisothiazol-5(2H)-ylidene]-5-chloro-2-methoxybenzamide], the Ki amounted to 1.5 nM on rat CB2 [1] and 16 nM on human CB2 receptors. The compound further showed an EC50 at rat CB2 [2] of 0.72 nM.

Regarding `CCCCc1cn(C(C)(C)C)s/c1=N\C(=O)C1(C)CCC(C(=O)NC)C1(C)C` (stereo not drawn) [Example 100, N^1-[(5Z)-4-butyl-2-tert-butylisothiazol-5(2H)-ylidene]-N^3,1,2,2-tetramethylcyclopentane-1,3-dicarboxamide], the Ki is 9.9 nM at rat CB2 [1] and 10 nM on human CB2 receptors. At rat CB2 [2], the EC50 was 0.99 nM.

On to `CCCCc1cn(C(C)(C)C(F)(F)F)s/c1=N\C(=O)c1cc(Cl)ccc1OC` [Example 151, N-[(5Z)-4-butyl-2-(2,2,2-trifluoro-1,1-dimethylethyl)isothiazol-5(2H)-ylidene]-5-chloro-2-methoxybenzamide], for which the Ki at rat CB2 [1] was determined as 0.4 nM; at human CB2 receptors it was 9.1 nM. The same compound gave an EC50 at rat CB2 [2] of 0.072 nM.

Take `COc1ccc(Cl)cc1C(=O)/N=c1\sn(C(C)(C)C)cc1CCC(C)=O` [Example 84, N-[(5Z)-2-tert-butyl-4-(3-oxobutyl)isothiazol-5(2H)-ylidene]-5-chloro-2-methoxybenzamide]: the Ki at rat CB2 [1] was 2.7 nM; at human CB2 receptors, 42 nM. Moreover, the EC50 at rat CB2 [2] was 0.88 nM.

Take `COc1ccc(Cl)cc1C(=O)/N=c1\sn(C(C)(C)C)cc1Cc1cscn1` [Example 52, N-[(5Z)-2-tert-butyl-4-(1,3-thiazol-4-ylmethyl)isothiazol-5(2H)-ylidene]-5-chloro-2-methoxybenzamide]: the Ki at rat CB2 [1] turned out to be 4.8 nM; at human CB2 receptors, 43 nM. This compound also displayed an EC50 at rat CB2 [2] of 0.15 nM.

As to `CCCCc1cn(C(C)(C)C)s/c1=N\C(=NC#N)c1cc(C(F)(F)F)ccc1OC[C@@H]1CCCN1C` [Example 193], the Ki at rat CB2 [1] was found to be 97 nM; at human CB2 receptors, 37 nM. For the same compound, the concentration for a half-maximal effect (EC50) at rat CB2 [2] is 2.7 nM.

Consider `COc1ccc(Cl)cc1C(=O)/N=c1\sn(C(C)(C)C)cc1CCCCF` [Example 148, N-[(5Z)-2-tert-butyl-4-(4-fluorobutyl)isothiazol-5(2H)-ylidene]-5-chloro-2-methoxybenzamide], for which the Ki at rat CB2 [1] came to 0.24 nM; at human CB2 receptors it was 7.6 nM. Moreover, at rat CB2 [2], the EC50 is 0.11 nM.

Turning to `CCCCc1cn(C(C)(C)C)s/c1=N\C(=O)c1cc(C(F)F)ccc1OC` [Example 65, N-[(5Z)-4-butyl-2-tert-butylisothiazol-5(2H)-ylidene]-5-(difluoromethyl)-2-methoxybenzamide], the Ki on rat CB2 [1] was 1.6 nM; at human CB2 receptors, 9.3 nM. The compound also showed an EC50 at rat CB2 [2] of 0.052 nM.

As for `CCCCc1cn(C(C)(C)C)s/c1=N\C(=O)C1=CC(=O)CC(C)(C)O1` [Example 125, N-[(5Z)-4-butyl-2-tert-butylisothiazol-5(2H)-ylidene]-2,2-dimethyl-4-oxo-3,4-dihydro-2H-pyran-6-carboxamide], the figures for the Ki on rat CB2 [1] and at human CB2 receptors were 1 nM and 31 nM, respectively. On rat CB2 [2], this compound registered an EC50 of 2.6 nM.

With `COc1ccc(Cl)cc1C(=O)/N=c1\sn(C(C)(C)C)cc1CCCC(C)=O` [Example 75, N-[(5Z)-2-tert-butyl-4-(4-oxopentyl)isothiazol-5(2H)-ylidene]-5-chloro-2-methoxybenzamide], the Ki at rat CB2 [1] stood at 4 nM; on human CB2 receptors, 31 nM. On rat CB2 [2], the EC50 is 0.29 nM.

Regarding `CCCCc1cn(C(C)(C)C)s/c1=N\C(=O)[C@H]1CC[C@@](C)(C(N)=O)C1(C)C` [Example 171, (1R,3S)—N^3-[(5Z)-4-butyl-2-tert-butylisothiazol-5(2H)-ylidene]-1,2,2-trimethylcyclopentane-1,3-dicarboxamide], the Ki on rat CB2 [1] was 5.8 nM; at human CB2 receptors, 9 nM. In addition, at rat CB2 [2], the midpoint of the response, the EC50, lay at 0.19 nM.
